The source of these data is PubChem BioAssay (NCI).

What all share (experiment): DTP human tumour cell line panel, 48 h
The subject of experiment [1] is A549 NSCLC.
Experiment [2] deals with CAKI-1 renal.
In experiment [3] the test system is HCT-116 colon.
Experiment [4] relates to HOP-92 NSCLC.
For experiment [5], the system named is HT29 colon.
Experiment [6] relates to IGROV1 ovarian.
Experiment [7] has as its system MDA-N.
The subject of experiment [8] is NCI-H226 lung.
Experiment [9] has as its system SK-MEL-28 melanoma.
Experiment [10] relates to SNB-19 CNS.
For experiment [11], the system named is UACC-62 melanoma.
For experiment [12], the system named is CCRF-CEM leukemia.

The structures appear in SMILES notation.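 Five compound concentrations were applied to cells in 96-well plates for 48 hours; endpoints were derived by simple linear interpolation of the resulting dose-response curve. TGI marks complete inhibition of growth.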

The term TGI denotes the concentration at which net growth stops. As to `O=C1C=C2S[C@H]3C[C@]2(C=C1Br)c1c(c(O)c2c4c1=NCCC=4C=N2)N3`, the TGI in [1] worked out at 6.85 µM; in [2], 3.07 µM; in experiment [3], 0.342 µM; in experiment [4], 2.28 µM; in experiment [5], 1.55 µM; in experiment [6], 2.92 µM. The TGI is 0.314 µM in experiment [7]; 4.86 µM in [8]; 2.76 µM in experiment [9]; 25.7 µM in experiment [10]; 1.23 µM in experiment [11].
As for `CSC1=N/C(=C\c2cccs2)C(=O)N1CN1CCOCC1`, the TGI in [1] was > 100 µM; in experiment [12], > 100 µM; in experiment [3], > 100 µM; in [4] it was 94.3 µM; in [5], > 100 µM; in experiment [6] it was > 100 µM. The concentration for total growth inhibition (TGI) in experiment [7], in experiment [8], in experiment [9], in experiment [10] and in experiment [11] was > 100 µM throughout.
With `CN1CCc2c(sc3nc(Nc4ccccc4)n(N)c(=O)c23)C1`, the TGI in [1], in experiment [2], in experiment [12], in experiment [3], in experiment [5] and in [6] was > 100 µM in each case. Besides, the concentration for total growth inhibition (TGI) in experiment [7], in [8], in [10] and in experiment [11] was > 100 µM in each case.
In the case of `COCCc1c(C)c(C#N)c2n(C)c3ccccc3n2c1=O`, the total growth inhibition concentration (TGI) in [1], in [2], in experiment [3], in experiment [4], in experiment [5] and in experiment [6] was > 10 µM throughout. Further, the total growth inhibition concentration (TGI) in experiment [7], in [8], in experiment [9], in [10] and in experiment [11] was > 10 µM in each case.
On to `C=C1C(=O)OC2/C=C(\C)CC/C=C(/C)CC(OC(=O)/C(=C/CO)CO)C12` (stereo unspecified), for which the TGI is > 100 µM in [1]; 34 µM in [2]; > 100 µM in experiment [12]; 59.9 µM in experiment [4]; 75.3 µM in experiment [5]; > 100 µM in experiment [6]. Besides, the TGI is 47.2 µM in experiment [7], 77.2 µM in experiment [9], > 100 µM in experiment [10] and 33.1 µM in [11].
Turning to `CC1=CC(c2ccccc2)OP1(=O)c1ccccc1` (stereo unspecified), the TGI in experiment [1], in experiment [2], in [3], in [4], in experiment [5] and in experiment [6] was > 100 µM each time. The concentration for total growth inhibition (TGI) in [7], in [8], in experiment [9], in experiment [10] and in experiment [11] was > 100 µM in each case.
For `COC1/C=C/C(C)C(OC)CC(O)/C=C/C(C)C(C(C)C(OC)C(C)CCC(=O)C(C)C(C/C=C/N(C)C=O)OC)OC(=O)/C=C/C=C(\C)CC(OC)C(OC)C2=CC(=O)O[C@@H](C(C)C(OC)C1)[C@H]2O` (stereo partly specified), the total growth inhibition concentration (TGI) in [1] was 0.497 µM; in [2], 0.0526 µM; in experiment [3] it was 0.0613 µM; in experiment [4] it was 0.0773 µM; in [5] it was > 25 µM; in [7] it was 0.159 µM. Also, the TGI in [8] came out at 0.0714 µM; in experiment [9], 0.121 µM; in [10] it was 0.244 µM; in experiment [11], 0.185 µM.
On to `NS(=O)(=O)c1nnc(NC(=O)CCC(=O)O)s1`, for which the TGI in experiment [1], in experiment [2], in experiment [3], in experiment [4], in [5] and in [7] was > 100 µM each time. Further, the TGI in experiment [8], in experiment [9], in [10] and in [11] was > 100 µM in each case.
With `Cc1csc2c(P(=O)(OC(C)C)OC(C)C)c(-c3ccccc3)cn12`, the TGI worked out at 32.4 µM in experiment [1]; 43.4 µM in [2]; 37.2 µM in experiment [12]; 27.4 µM in experiment [3]; 33.5 µM in [4]; 29.2 µM in experiment [5]. Also, the TGI in experiment [6] is 31.9 µM; in [7], 32.5 µM; in experiment [9] it was 32.9 µM; in [10], 28.4 µM; in [11], 20 µM.
As for `COc1ccc(/C=C2/C(=O)N(C(=O)c3ccccc3O)N=C2C)cc1OC`, the TGI in experiment [1] is > 100 µM; in experiment [2], > 28.1 µM; in [12], > 100 µM; in experiment [3] it was > 100 µM; in [4], > 100 µM; in [5] it was > 100 µM. For the same molecule, the TGI in experiment [7] is > 100 µM; in experiment [8], 40.5 µM; in experiment [9], > 100 µM; in experiment [11] it was 0.591 µM.
As to `N#CS/C(C(Cl)=C(Cl)Cl)=C(/Cl)[N+](=O)[O-]`, the TGI in [1] was 53.8 µM; in [2], 2.42 µM; in [12], 1.18 µM; in experiment [3] it was 3 µM; in experiment [6] it was 5.63 µM; in experiment [7], 3.18 µM. In addition, the TGI was found to be 19.9 µM in experiment [8], 3.45 µM in experiment [9], 49.4 µM in [10] and 17.5 µM in experiment [11].
With `CCCCc1ccc(Nc2nc3c(ncn3C3OC(COC(C)=O)C(OC(C)=O)C3OC(C)=O)c(=O)[nH]2)cc1` (stereo unspecified), the TGI was > 100 µM in experiment [1]; > 100 µM in experiment [2]; 35.1 µM in [12]; 31.9 µM in experiment [3]; 30.4 µM in experiment [4]; 37.5 µM in experiment [5]. Moreover, the TGI was determined as 37.7 µM in experiment [6]; 35.4 µM in [7]; 60.6 µM in [8]; 81.5 µM in experiment [10]; 34.7 µM in experiment [11].
For `CCN(CC)CCNc1ccc([N+](=O)[O-])c2nc3ccccc3c(N)c12`, the TGI in [1] is 2.39 µM; in [2], > 10 µM; in experiment [12], 2.08 µM; in experiment [3] it was 1.5 µM; in experiment [4] it was 5.84 µM; in [5] it was 2.28 µM. For the same molecule, the total growth inhibition concentration (TGI) in [6] is > 10 µM; in experiment [7], 2.14 µM; in experiment [8] it was 5.62 µM; in experiment [11], 4.07 µM.
